Here are results for 4 compounds from patent US20080098491A1, “MOUSE MODELS TO STUDY CACHEXIA” (ZOLTAN LABORATORIES LLC, priority 2006, published 2008).

The test system of test [1] is B16 mouse melanoma. The experiment in a line: B16 mouse melanoma model, s.c. commercial PALP, s.c. plus topical PALP, or TF (Example 4, Experiment 2). It counts as in vivo. Particulars: TF 16-mg/kg s.c.; for Body weight (total weight minus tumor weight) / Total weight / Tumor weight: days 11-18 daily: commercial PALP 60-mg/kg s.c., topical cream 4-mg commercial PALP/g. An excerpt:
(§1) The B16 mouse melanoma and MXT mouse mammary tumors were developed in first generation hybrid BDF1 (C57 B1 female×DBA/2 male) adult female mice kept at specified pathogen free (SPF) hygienic level. These models were chosen for these experiments because these mice have the complete immune system, and both tumors grow very rapidly. To develop the tumors, B16 and MXT tumor tissue fragments of about 0.1-cm^3 were surgically implanted subcutaneously into the intrascapular region to develop the tumors. Each tumor fragment contained about 1-1.5×10^6 cells. The animals were kept in macrolon cages on ventilated rack at 22-24° C. (50-60% humidity) with lighting regimen of 12/12 h light/dark. The animals had free access to tap water and were fed with sterilized standard diet (Charles River VRF1, Germany) ad libitum. The animals were taken care of according to the “Guiding Principle for the care and use of Animals” based upon the Helsinki declaration and they were approved by the local ethical committee.
(§2) In case of both tumor models the tumor size was usually in the range of 0.2 to 0.5-g when treatments started 7-11 days after tumor implantation; the mice were selected so that in the same treatment group the difference in tumor size was no greater than 0.1 gram. In some experiments, the test proteins were suspended in physiological saline and injected in 50-μl volume subcutaneously in the vicinity of tumor (within 1-cm of tumor margin). In other experiments, the test proteins were dispersed in Vaselinum cholesteratum and used topically; 150-mg cream was applied on the tumor and the vicinity of tumor area (with about 0.5-cm of the tumor margin). The tumor volume was determined by using calipers; this technique is well known to one having ordinary skill in the art. Tumor volume was calculated according to the generally accepted formula: V=a^2×b×7r/6, where “a” and “b” mean the shortest and longest diameter, respectively, of the measured tumor.
In this model, either highly purified PALP or commercial PALP was subcutaneously injected to reverse body weight loss in the rapidly growing B16 melanoma model. Two separate experiments were performed to validate the effects of highly purified PALP (Experiment 1) and commercial PALP (Experiment 2). For both experiments, the B16 mouse melanoma model was developed as described in Example 3. The data presented in TABLE 1 (for Experiment 1) and TABLE 2 (for Experiment 2) show the changes in total weight, tumor weight, and body weight (total weight minus tumor weight). In each experimental group all mice survived until the conclusion of the experiment.
Experiment 2. In this experiment, the first group of animals remained untreated for the entire observation period. In the second group, from day 11 through day 18 after implantation of tumor pieces, the animals were treated daily with 60-mg/kg of commercial PALP via s.c. administration (seven treatments). In the third group, from day 11 through day 18 after implantation of tumor pieces, the animals were simultaneously administered 60-mg/kg of commercial PALP via s.c injection and treated topically with 150-mg of cream containing 4-mg commercial PALP in 1-g of Vaselinum cholesteratum (seven treatments). Topical treatment involved spreading the cream on both the tumor and surrounding skin area. In the fourth group, from day 11 through day 18 after implantation of tumor pieces, the animals were treated with 16-mg/kg of commercial partially iron-saturated TF via subcutaneous administration (seven treatments). Each group included seven mice.

Test [2] relates to MXT mouse mammary tumor. Put plainly: Cisplatin-treated MXT mouse mammary tumor model, PALP and TF (Example 9, Experiment 1). It counts as in vivo. Particulars: co-treated with cisplatin 3-mg/kg i.p.
Source text: as §1, §2
Experiment 1. The mouse MXT mammary tumor was developed as described in Example 3. In the first group, animals remained untreated during the whole observation period. In the second group, starting on the 7th day after tumor implantation, mice were intraperitoneally (i.p.) administered 3-mg per 1-kg total weight of cisplatin 7-times every second day. In the third group, starting on the 7th day after tumor implantation, mice were simultaneously administered 3-mg per 1-kg of cisplatin i.p. and 16-mg per 1-kg of purified PALP s.c. In the fourth group, starting on the 7th day after tumor implantation, mice were simultaneously administered 3-mg per 1-kg of cisplatin i.p. and 60-mg per 1-kg of commercial PALP s.c. In the fifth group, starting on the 7th day after tumor implantation, mice were simultaneously administered 3-mg per 1-kg of cisplatin i.p. and 14-mg per 1-kg of commercial TF (T 3309 in the Sigma catalog) s.c. Each treatment was performed 7-times on every second day. Each group included 7 animals. The mean values for total weight, tumor weight and body weight (the difference between total and tumor weight) are shown in TABLE 6.

Test [3] deals with fibroblast proliferation. Put plainly: Fibroblast proliferation in vitro, effect of pre-heating the protein. It counts as cell-based. The method, then: It is reasonable to expect that pre-heating of PALP at 65-75° C. prior to its use may also enhance its anti-cachectic effect. Thus, a step of heat-activation of both commercial and highly purified PALP preparation may be included prior to their applications.
Thus, pre-heating of TF-containing compositions to enhance the effects of other components, such as PALP and AT will unlikely to alter the ability of TF to reduce tumor- and chemotherapy-induced body weight loss.
Therefore, a step of heat-activation of AT may be included during the preparation of active compositions.

Test [4] has as its system MXT mouse mammary tumor. The experiment in a line: Cisplatin-treated MXT mouse mammary tumor model, purified PALP, AT, holo-TF, apo-TF (Example 9, Experiment 2). It counts as in vivo. The following applies: 12-mg/kg s.c. with cisplatin 3-mg/kg i.p.
Source text: as §1, §2
Experiment 2. The commercial PALP used in this model for Exp. 1 was composed of PALP (˜10%), TF (˜12%), AT (˜30%), albumin (˜35%) and the degradation products of TF (˜13%). […] In this experiment, it was determined whether the other two major proteins, i.e. TF and AT, present in the commercial PALP preparation in addition to PALP, also influence cisplatin-induced loss of body weight or not. The mouse MXT mammary tumor was developed as described in Example 3. In the first group, animals remained untreated during the whole observation period. In the second group, starting on the 7th day after tumor implantation, mice were administered 3-mg per 1-kg of cisplatin i.p. 6-times every second day. In the third group, starting on the 7th day after tumor implantation, mice were simultaneously administered 3-mg per 1-kg of cisplatin i.p. and 12-mg per 1-kg of purified PALP s.c. In the fourth group, starting on the 7th day after tumor implantation, mice were simultaneously administered 3-mg per 1-kg of cisplatin i.p. and 12-mg per 1-kg of highly purified AT s.c. In the fifth group, starting on the 7th day after tumor implantation, mice were simultaneously administered 3-mg per 1-kg of cisplatin i.p. and 12-mg per 1-kg of commercial holo-TF (h-TF, T 0665 in the Sigma catalog) s.c. In the sixth group, starting on the 7th day after tumor implantation, mice were simultaneously administered 3-mg per 1-kg of cisplatin i.p. and 12-mg per 1-kg of commercial apo-TF (a-TF, T 2036 in the Sigma catalog) s.c. Holo-TF contained 1,100-1,600 μg iron per gram protein while apo-TF was essentially iron-free. Each treatment with the proteins was also performed 6-times on every second day simultaneously with the cisplatin treatment. Each group included 7 animals. The mean values for total weight, tumor weight and body weight (the difference between total and tumor weight) are shown in gram in TABLE 7.

Test [5] relates to B16 mouse melanoma. The experiment in a line: B16 mouse melanoma model, s.c. CCDTHT (Example 8). The following applies: for Body weight (total weight minus tumor weight) / Total weight / Tumor weight: CCDTHT 4.5-mg/kg s.c. daily from day 11 until day 22. It counts as in vivo.
Source text: as §1, §2
In this model, CCDTHT, a chemically synthesized compound is used to prevent or reverse tumor-induced body weight loss. The B16 mouse tumors were developed as described in Example 3. Two experimental groups each involving five mice were used. In the first group, mice remained untreated during the entire observation period. In the second group, starting on the 11th day after tumor implantation, mice were s.c. administered 4.5-mg/kg CCDTHT; then the treatments were repeated daily until day 22. The mean values for total weight, tumor weight and body weight (the difference between total and tumor weight) are shown in TABLE 5.

Test [6] concerns MXT mouse mammary tumor. Put plainly: Cisplatin-treated MXT mouse mammary tumor model, CCDTHT (Example 10). It counts as in vivo. Particulars: with cisplatin 3-mg/kg i.p.
Source text: as §1, §2
The mouse MXT mammary tumor was developed as described in Example 3. In the first group, animals remained untreated during the whole observation period. In the second group, starting on the 7th day after tumor implantation, mice were administered 3-mg per 1-kg of cisplatin i.p. 9-times every second day. In the third group, starting on the 7th day after tumor implantation, mice were simultaneously administered 3-mg per 1-kg of cisplatin i.p. and 4.6-mg per 1-kg of CCDTHT s.c. In the fourth group, starting on the 7th day after tumor implantation, mice were simultaneously administered 3-mg per 1-kg of cisplatin i.p. as well as 4.6-mg per 1-kg of CCDTHT s.c. and 14-mg per 1-kg of highly purified PALP s.c. Each treatment was performed 9-times on every second day. Each group included 7 animals. The mean values for total weight, tumor weight and body weight (the difference between total and tumor weight) are shown in TABLE 8.

Setting [7] is: day 11 after tumor transplantation.
Setting [8] is: day 14 after tumor transplantation.
Setting [9] is: day 16 after tumor transplantation.
[10] abbreviates: day 18 after tumor transplantation.
Setting [11] is: day 21 after tumor transplantation.
The mark [12] stands for this setting: day 23 after tumor transplantation.
Where [13] appears, read: day 23, CCDTHT 4.5-mg/kg s.c. daily.

As for “TF s.c.: commercial partially iron-saturated human transferrin (Sigma T 3309)”, the “Effect on body weight loss” value in test [1] (commercial PALP 60-mg/kg s.c.) is on record as “stabilized body weights but did not promote weight gain”. The “Body weight (total weight minus tumor weight)” value was found to be 22.4 gram in test [1] (setting [7]); 23.5 gram in test [1] (setting [8]); 23.5 gram in test [1] (setting [9]); 23.6 gram in test [1] (setting [10]); 23.9 gram in test [1] (setting [11]); 23.9 gram in test [1] (setting [12]). In addition, the Total weight was 22.9 gram in test [1] (setting [7]); 24.2 gram in test [1] (setting [8]); 24.3 gram in test [1] (setting [9]); 25.0 gram in test [1] (setting [10]); 26.1 gram in test [1] (setting [11]); 26.6 gram in test [1] (setting [12]). The Tumor weight was determined as 0.5 gram in test [1] (setting [7]); 0.7 gram in test [1] (setting [8]); 0.8 gram in test [1] (setting [9]); 1.4 gram in test [1] (setting [10]); 2.2 gram in test [1] (setting [11]); 2.7 gram in test [1] (setting [12]). For the same compound, in test [2], the “Effect on body weight loss induced by the tumor and cisplatin” value is on record as “partially reversed body weight loss”. Besides, in test [3], the “Effect of pre-heating on the stimulatory effects on fibroblast proliferation” value was “not altered by pre-heating it at up to 75 °C for 30 min”.

For the compound “apo-TF: commercial apo-transferrin (Sigma T 2036), essentially iron-free”, the “Effect on cisplatin-induced body weight loss” value in test [4] is on record as “partially reversed cisplatin-induced body weight loss”.

With “holo-TF: commercial holo-transferrin (Sigma T 0665), 1,100-1,600 μg iron per gram protein”, the “Effect on cisplatin-induced body weight loss” value in test [4] is “partially reversed cisplatin-induced body weight loss”.

As for `CC[N+](C)(CC)CCOCc1ccc2sc3ccccc3c(=O)c2c1.[I-]` [CCDTHT, N,N-diethyl-N-methyl-2-[(9-oxo-9H-thioxanthen-2-yl)methoxy]-ethanaminium iodide], the “Effect on body weight” value in test [5] (CCDTHT 4.5-mg/kg s.c. daily) was “modest weight gain”. Further, the “Body weight (total weight minus tumor weight)” value in test [5] (setting [7]) is recorded as 22.4 g; in test [5] (setting [8]) it was 22.9 g; in test [5] (setting [9]), 23.2 g; in test [5] (setting [10]), 23.4 g; in test [5] (setting [11]) it was 23.6 g; in test [5] (setting [12]), 23.8 g. Further, the Total weight in test [5] (setting [7]) is 23.0 g; in test [5] (setting [8]), 23.7 g; in test [5] (setting [9]), 24.2 g; in test [5] (setting [10]) it was 24.7 g; in test [5] (setting [11]), 25.4 g; in test [5] (setting [12]), 25.9 g. Moreover, the Tumor weight in test [5] (setting [7]) came out at 0.6 g; in test [5] (setting [8]) it was 0.8 g; in test [5] (setting [9]) it was 1.0 g; in test [5] (setting [10]), 1.3 g; in test [5] (setting [11]) it was 1.8 g; in test [5] (setting [12]), 2.1 g. For the same compound, the “Body weight difference to control mice” value in test [5] (setting [13]) was “about 10%”. Further, in test [5] (setting [13]), the “Body weight heavier than control mice” value came out at 2.6 grams. Moreover, the “Effect on cisplatin-induced body weight loss” value in test [6] is “effectively prevents cisplatin-induced body weight loss”.
